Laboratory results from patent publication US20190353647A1, “NOVEL REAL-TIME MULTIPLEXED, MULTI-COLOR BIOLUMINESCENCE RESONANCE ENERGY TRANSFER ASSAY, APPARATUS, AND USES THEREOF” (Universite de Bordeaux, priority 2016, published 2019).

Molecular target: T1, TRPV3 (Homo sapiens, UniProt Q8NET8)
T1 sequence (Q8NET8 1-790): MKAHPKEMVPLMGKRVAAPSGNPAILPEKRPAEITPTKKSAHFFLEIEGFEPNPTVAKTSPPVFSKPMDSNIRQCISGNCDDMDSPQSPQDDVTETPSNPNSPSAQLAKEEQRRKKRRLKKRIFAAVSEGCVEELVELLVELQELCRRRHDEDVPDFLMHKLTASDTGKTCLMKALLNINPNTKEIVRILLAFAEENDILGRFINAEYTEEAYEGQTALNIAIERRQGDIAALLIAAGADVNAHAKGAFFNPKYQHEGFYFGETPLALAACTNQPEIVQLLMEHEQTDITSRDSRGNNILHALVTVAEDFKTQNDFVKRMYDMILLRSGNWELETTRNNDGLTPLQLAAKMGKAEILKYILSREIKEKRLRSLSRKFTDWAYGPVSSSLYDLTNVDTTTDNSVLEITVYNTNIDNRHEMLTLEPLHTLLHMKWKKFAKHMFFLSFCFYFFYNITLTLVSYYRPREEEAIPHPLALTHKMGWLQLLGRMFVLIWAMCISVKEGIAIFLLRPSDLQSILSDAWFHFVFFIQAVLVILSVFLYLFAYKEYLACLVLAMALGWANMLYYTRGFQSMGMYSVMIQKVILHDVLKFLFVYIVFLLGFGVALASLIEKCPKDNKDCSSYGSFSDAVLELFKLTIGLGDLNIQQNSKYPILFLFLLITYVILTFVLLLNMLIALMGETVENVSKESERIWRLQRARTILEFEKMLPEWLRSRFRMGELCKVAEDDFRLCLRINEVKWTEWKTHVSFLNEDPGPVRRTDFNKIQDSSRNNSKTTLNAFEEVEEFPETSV
Test: Intermolecular BRET assay, Luc-TRPV3/YFP-CaM in HEK293T cells
Format: cell-based
Set-up: expressed in transfected cells; host or cells: HEK293T
Settings: dose-response; for BRET signal between YFP-CaM and Luc-TRPV3 on challenge: FIG. 1
From the text: In order to generate the BRET constructs, super Yellow Fluorescent Protein 2 and Renilla Luciferase II were used to improve the brightness of the assay. They were referred as YFP and Luc for short in the rest of the manuscript. The cDNA of Luc and YFP were first cloned together using a three-piece ligation in the BamHI/XhoI site of pcDNA3.1(+) (Invitrogen, Carlsbad, Calif., USA), yielding two expression vectors pcDNA3.1 YFP-Luc where YFP was cloned in-fusion at the N-terminal of Luc, and pcDNA3.1 Luc-YFP where Luc was cloned in-fusion at the N-terminal of YFP. Both YFP and Luc were amplified by PCR from the pcDNA3-YFP-EPAC-Luc vector. Luc was cloned either at the N-terminal of YFP as a HindIII-EcoRI fragment (primers used: “Luc_HindIII_ATGN-term sense” and “Luc_no Stop_EcoRI_N-term antisense”) or at the COOH-terminal of YFP as an EcoRI-XhoI fragment (primer used: “Luc_EcoRI_ATG_C-term sense” and “Luc_XhoI_Stop_C-term antisense”). In parallel, YFP was cloned either at the N-terminal of Luc as a HindIII-EcoRI fragment (primers used: “YFP_HindIII_ATG_N-term sense” and “YFP_no Stop_EcoRI_N-term antisense”) or at the COOH-terminal of Luc as a EcoRI-XhoI fragment (primer used: “YFP_EcoRI_ATG_C-term sense” and “YFP_XhoI_Stop_C-term antisense”). The sequence joining Luc and YFP sequence encoded […] (SEQ ID NO: 18) as a linker, and contained an AgeI restriction site. The YFP-hTRPV1-Luc expression vector was obtained by subcloning the human TRPV1 cDNA from the pDONR201-hTRPV1 vector (Harvard Medical School PlasmID Repository, clone HsCD00081472) as an EcoRI PCR fragment in the EcoRI site of the vector pcDNA3.1 YFP-Luc (primer used: “hTRPV1_EcoRI_Fus_Sense” and “hTRPV1_EcoRI_Fus_antisense”). The hTRPV1-Luc expression vector was obtained by subcloning the cDNA of hTRPV1 as a HindIII-EcoRI fragment in place of the YFP in the HindIII-EcoRI site of the pcDNA3.1 YFP-Luc vector (primer used: “hTRPV1_HindIII_ATG_Sense” and “hTRPV1_EcoRI_Fus_antisense”). […]
HEK293T cells were maintained in Dulbecco's modified Eagle's medium-high Glucose (DMEM) (D6429, Sigma) supplemented with 10% fetal bovine serum, 100 units mL-1 penicillin and streptomycin. […] After overnight incubation, transfected cells were then detached, resuspended in DMEM w/o red phenol (Ref 21063-029, ThermoFisher scientific, Waltham, Mass., USA) and replated at a density of 10^5 cells per well in 96-well white plates with clear bottoms (Greiner Bio one, Courtaboeuf, France) pre-treated with D-polylysine (Sigma) for reading with the Tristar2 luminometer (Berthold Technologies, Bad Wildbad, Germany) or onto 12 mm diameter glass coverslips (Knittel Glass, Braunschweig, Germany) treated with poly-L-lysine for the reading with the SpectraPro 2300i spectrometer (Acton Optics, Acton, Mass., USA). […]

SMILES	BRET signal between YFP-CaM and Luc-TRPV3 on challenge	EC50 (FIG. 1, read-out: EC50 of BRET signal increase between YFP-CaM and Luc-TRPV3) [µM]
COc1cc(CNC(=O)CCCC/C=C/C(C)C)ccc1O [CAPS, Capsaicin]	no dose-dependent BRET increase	
CC(C)C[C@H](NC(=O)c1cc2ccccc2s1)C(=O)N1CCN(C(=O)[C@H](CO)NS(=O)(=O)c2ccc(Cl)cc2Cl)CC1 [GSK1016790A]	no dose-dependent BRET increase	
CCN(CC)CCOC(=O)C(c1ccccc1)C1CCCCC1 (stereo not shown) [Drofenine]	dose-dependent increase	206
